Source: US8932597B2 (priority 2008, dated 2015)

Assays:
[1] = test system: HuM2e antibody 23K12; format: binding, human
[2] = test system: anti-M2 human monoclonal antibody Z3G1; format: binding

Substance	Signal (peptides that bind to 23K21 and 8I10) [1]	Signal (peptides that show specific binding to Z3G1) [2]	Signal (peptides that bind to Z3G1) [2]
650 (SLLTEVETPVRNEWGCRCNDSSD; epitope peptide) [compound 650]	758	2331	–
651 (SLLTEVETPIRNEWGCRCHDSSD; epitope peptide) [compound 651]	758	–	2350
652 (SLLTEVEEPIRNEWGCRCNDSSD; epitope peptide) [compound 652]	757	2362	–
653 (SLLTEVETIIRNEWGCRCNDSSD; epitope peptide) [compound 653]	756	2096	–
654 (SLLTEVETPIRYEWGCRCNDSSD; epitope peptide) [compound 654]	755	2202	–
656 (SLLTEVETPIWNEWGCRCNDSSD; epitope peptide) [compound 656]	753	2250	–
657 (SLLTEVDTPIRNEWGCRCNDSSD; epitope peptide) [compound 657]	751	2095	–
658 (SLLTEVYTPIRNEWGCRCNDSSD; epitope peptide) [compound 658]	751	1092	–
659 (SLLTEVETPIRNEWGARCNDSSD; epitope peptide) [compound 659]	750	2396	–
661 (SLLTEVETPIRQEWGCRCNDSSD; epitope peptide) [compound 661]	748	2367	–
662 (SLLTEVETPIRNFWGCRCNDSSD; epitope peptide) [compound 662]	747	2417	–
663 (MCLCTCVGMSLLTEV; epitope peptide) [compound 663]	746	–	2509
664 (SLLTEVETPIRNEWGNRCNDSSD; epitope peptide) [compound 664]	746	2328	–
665 (SLLTEVETPFRNEWGCRCNDSSD; epitope peptide) [compound 665]	745	2229	–
666 (SLLTEVETPIRNAWGCRCNDSSD; epitope peptide) [compound 666]	743	2334	–
667 (SLLTEVETPIRNEWGIRCNDSSD; epitope peptide) [compound 667]	739	2211	–
668 (SLLTEVETPIRNEWGYRCNDSSD; epitope peptide) [compound 668]	739	2410	–
670 (SLLTEVETWIRNEWGCRCNDSSD; epitope peptide) [compound 670]	736	2146	–
671 (SLLTEVETPIRNEPGCRCNDSSD; epitope peptide) [compound 671]	735	2279	–
672 (SLLTEVETPIRNEWGRRCNDSSD; epitope peptide) [compound 672]	735	2372	–
674 (SLLTEVETPIRNEWGCRCTDSSD; epitope peptide) [compound 674]	733	–	2253
675 (SLLTEVNTPIRNEWGCRCNDSSD; epitope peptide) [compound 675]	732	2150	–
676 (SLLTEVETPIENEWGCRCNDSSD; epitope peptide) [compound 676]	731	2252	–
677 (SLLTEVETPIQNEWGCRCNDSSD; epitope peptide) [compound 677]	731	2372	–
678 (SLLTEVETPIRSEWGCRCNDSSD; epitope peptide) [compound 678]	730	2322	–

Substance	Signal (peptides that bind to 23K21 and 8I10) [1]	Signal (peptides that show specific binding to Z3G1) [2]	Signal (peptides that bind to Z3G1) [2]
679 (SLLTEVETPIRNEWGCECNDSSD; epitope peptide) [compound 679]	730	2148	–
680 (SLLTEVETPIVNEWGCRCNDSSD; epitope peptide) [compound 680]	729	2366	–
681 (SLLTEVETPIRNEWACRCNDSSD; epitope peptide) [compound 681]	729	2431	–
682 (SLLTEVETPIRNEWGSRCNDSSD; epitope peptide) [compound 682]	729	2346	–
683 (SLLTEVETPIRNEWGCACNDSSD; epitope peptide) [compound 683]	729	2301	–
684 (SLLTEVETPIRNHWGCRCNDSSD; epitope peptide) [compound 684]	728	2377	–
685 (SLLTEVETPIRNVWGCRCNDSSD; epitope peptide) [compound 685]	728	2281	–
686 (SLLTEVETPIRNEWGCRLNDSSD; epitope peptide) [compound 686]	728	2363	–
687 (SLLTEVETPCRNEWGCRCNDSSD; epitope peptide) [compound 687]	724	2050	–
688 (SLLTEVETPIRNETGCRCNDSSD; epitope peptide) [compound 688]	724	2401	–
689 (SLLTEVETPIRNEWGCRCGDSSD; epitope peptide) [compound 689]	724	–	2343
690 (SLLTEVHTPIRNEWGCRCNDSSD; epitope peptide) [compound 690]	722	2057	–
691 (SLLTEVETPIRNEWGCRMNDSSD; epitope peptide) [compound 691]	722	2356	–
692 (SLLTEVETPILNEWGCRCNDSSD; epitope peptide) [compound 692]	721	2363	–
694 (SLLTEVETPIRNEWGCRCNESSD; epitope peptide) [compound 694]	720	–	2282
695 (SLLTEVEVPIRNEWGCRCNDSSD; epitope peptide) [compound 695]	719	2286	–
696 (SLLTEVETPIRNEHGCRCNDSSD; epitope peptide) [compound 696]	719	2398	–
697 (SLLTEVETPIRNEWGCRINDSSD; epitope peptide) [compound 697]	718	2409	–
698 (SLLTEVETPIRDEWGCRCNDSSD; epitope peptide) [compound 698]	716	2187	–
699 (SLLTEVETPIRNEWGCRYNDSSD; epitope peptide) [compound 699]	716	–	2169
700 (SLLTEVETSIRNEWGCRCNDSSD; epitope peptide) [compound 700]	715	2151	–
701 (SLLTEVETPIRNEWGCKCNDSSD; epitope peptide) [compound 701]	715	2290	–
702 (SLLTEVETPIRNYWGCRCNDSSD; epitope peptide) [compound 702]	714	2311	–
703 (SLLTEVETPIRNWWGCRCNDSSD; epitope peptide) [compound 703]	713	2293	–
